# Target: DLK (Homo sapiens (Human), UniProt Q12852)
# Test: DLK TR-FRET Inhibition Assay
# Format: biochemical
# Details: N-terminally GST-tagged DLK (catalytic domain amino acid 1-520), MKK4 K131M substrate, 30 μM ATP; read-out: DLK HTRF Ki
# How it was run: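 GST-tagged DLK catalytic domain (aa 1-520, 5 nM) phosphorylates 40 nM HIS-tagged MKK4 K131M with 30 μM ATP, pH 7.5, 60 min at ambient temperature; compounds 1:3 serial from 20 uM. Phospho-MKK4 detected by TR-FRET (Eu-cryptate anti-phospho-MKK4/D2 anti-HIS) after 3 h.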
# Chain of DLK (Q12852 1-520): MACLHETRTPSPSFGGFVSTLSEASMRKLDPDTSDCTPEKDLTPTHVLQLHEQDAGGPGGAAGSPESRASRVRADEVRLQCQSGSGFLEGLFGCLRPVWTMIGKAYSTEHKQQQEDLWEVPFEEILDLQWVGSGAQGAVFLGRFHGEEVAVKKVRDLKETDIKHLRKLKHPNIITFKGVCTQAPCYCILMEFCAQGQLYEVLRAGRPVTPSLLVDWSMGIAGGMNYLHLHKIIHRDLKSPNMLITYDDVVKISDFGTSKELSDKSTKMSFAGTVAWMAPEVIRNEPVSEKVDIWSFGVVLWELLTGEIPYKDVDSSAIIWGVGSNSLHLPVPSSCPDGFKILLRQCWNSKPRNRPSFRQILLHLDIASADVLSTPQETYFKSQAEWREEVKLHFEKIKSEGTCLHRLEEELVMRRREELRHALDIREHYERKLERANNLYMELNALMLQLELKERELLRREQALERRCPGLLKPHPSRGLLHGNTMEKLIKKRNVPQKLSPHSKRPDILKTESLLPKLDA
row,SMILES,Ki
1,"CC[C@]1(C)OCCn2c1nc1c(N3CC4CC3C4)nc(-c3cnc(N)nc3)nc12 (single isomer, unassigned) [Example 94]",281 nM
2,CC1(C)OCCn2c1nc1c(N3CC(F)(F)C3)nc(-c3cnc(N)c(OCC4CC4)c3)nc12 [Example 70],417 nM
3,"CC1(C)OCCn2c1nc1c(N3CC4CC3C4)nc(-c3cnc(N)c(C(F)(F)F)c3)nc12 [Example 90, 5-(4-(2-azabicyclo[2.1.1]hexan-2-yl)-6,6-dimethyl-8,9-dihydro-6H-[1,4]oxazino[4,3-e]purin-2-yl)-3-(trifluoromethyl)pyridin-2-amine]",5.98 nM
4,"C[C@@H]1CC[C@H](C)N1c1nc(-c2cnc(N)nc2)nc2c1nc1n2CCOC1(C)C [Example 55, 5-(4-((2R,5S)-2,5-dimethylpyrrolidin-1-yl)-6,6-dimethyl-8,9-dihydro-6H-[1,4]oxazino[4,3-e]purin-2-yl)pyrimidin-2-amine]",371 nM

# More lines, now with the values ahead:
row,Ki,SMILES
1,150 nM,"CC1(C)OCCn2c1nc1c(C3CC3)nc(-c3cnc(N)c4nc[nH]c34)nc12 [Example 127, 7-(4-cyclopropyl-6,6-dimethyl-8,9-dihydro-6H-[1,4]oxazino[4,3-e]purin-2-yl)-1H-imidazo[4,5-c]pyridin-4-amine]"
2,223 nM,"CC1(C)OCCn2c1nc1c(N3CC4CC3C[C@@H]4F)nc(-c3cnc(N)nc3)nc12 (single isomer, unassigned) [Example 143]"
3,73.9 nM,CC1(C)OCCn2c1nc1c(NC3CCC3)nc(-c3cnc(N)nc3)nc12 [Example 124]
4,62 nM,"C[C@H]1COC(C)(C)c2nc3c(N4CC5CC4C5)nc(-c4cnc(N)nc4)nc3n21 (single isomer, unassigned) [Example 97]"
5,297 nM,"CC1(C)OCCn2c1nc1c(C3CCC3)nc(-c3cnc(N)nc3)nc12 [Example 104, 5-(4-cyclobutyl-6,6-dimethyl-8,9-dihydro-6H-[1,4]oxazino[4,3-e]purin-2-yl)pyrimidin-2-amine]"
6,458 nM,"CC1(C)OCCn2c1nc1c(N3CC(C#N)C3)nc(-c3cnc4[nH]cnc4c3)nc12 [Example 112, 1-(2-(3H-imidazo[4,5-b]pyridin-6-yl)-6,6-dimethyl-8,9-dihydro-6H-[1,4]oxazino[4,3-e]purin-4-yl)azetidine-3-carbonitrile]"

# Reference: patent US10131675B2 (Genentech, Inc., priority 2015, dated 2018)
